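Where inhibition never reached the appropriate level, the endpoint shown equals the highest concentration tested. Otherwise, values were interpolated linearly from a five-concentration, 48-hour dose response in 96-well plates. GI50 is the concentration that inhibits growth by half. TGI marks complete inhibition of growth.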 Where a SMILES comes first, the peptide text is derived from it. The star is where a group is joined. Boc = CC(C)(C)OC(=O)*
What was measured:
Assay in all cases: NCI tumour cell line growth inhibition, 48 h
EKVX NSCLC = tested on: EKVX NSCLC
LOX IMVI melanoma = tested on: LOX IMVI melanoma
T-47D breast = tested on: T-47D breast
MDA-MB-231 breast = tested on: MDA-MB-231 breast
UACC-62 melanoma = tested on: UACC-62 melanoma
ACHN renal = tested on: ACHN renal
SK-MEL-5 melanoma = tested on: SK-MEL-5 melanoma
HCT-116 colon = tested on: HCT-116 colon
MALME-3M melanoma = tested on: MALME-3M melanoma
MCF7 breast = tested on: MCF7 breast
DU-145 prostate = tested on: DU-145 prostate
HT29 colon = tested on: HT29 colon
CCRF-CEM leukemia = tested on: CCRF-CEM leukemia
SF-295 CNS = tested on: SF-295 CNS
A549 NSCLC = tested on: A549 NSCLC
HOP-62 NSCLC = tested on: HOP-62 NSCLC
SW-620 colon = tested on: SW-620 colon
MDA-MB-435 = tested on: MDA-MB-435
UACC-257 melanoma = tested on: UACC-257 melanoma
NCI-H460 lung = tested on: NCI-H460 lung
M14 melanoma = tested on: M14 melanoma
HL-60(TB) leukemia = tested on: HL-60(TB) leukemia
MOLT-4 leukemia = tested on: MOLT-4 leukemia
RPMI-8226 leukemia = tested on: RPMI-8226 leukemia
SK-OV-3 ovarian = tested on: SK-OV-3 ovarian
IGROV1 ovarian = tested on: IGROV1 ovarian
OVCAR-3 ovarian = tested on: OVCAR-3 ovarian
K-562 leukemia = tested on: K-562 leukemia
OVCAR-8 ovarian = tested on: OVCAR-8 ovarian
MDA-N = tested on: MDA-N
SNB-19 CNS = tested on: SNB-19 CNS
HCT-15 colon = tested on: HCT-15 colon
COLO 205 colon = tested on: COLO 205 colon
HCC-2998 colon = tested on: HCC-2998 colon
SR leukemia = tested on: SR leukemia
SF-268 CNS = tested on: SF-268 CNS
OVCAR-4 ovarian = tested on: OVCAR-4 ovarian
TK-10 renal = tested on: TK-10 renal
CAKI-1 renal = tested on: CAKI-1 renal
HOP-92 NSCLC = tested on: HOP-92 NSCLC
SK-MEL-28 melanoma = tested on: SK-MEL-28 melanoma
PC-3 prostate = tested on: PC-3 prostate
NCI-H522 lung = tested on: NCI-H522 lung
NCI/ADR-RES ovarian = tested on: NCI/ADR-RES ovarian
786-0 renal = tested on: 786-0 renal
UO-31 renal = tested on: UO-31 renal
SK-MEL-2 melanoma = tested on: SK-MEL-2 melanoma
KM12 colon = tested on: KM12 colon
BT-549 breast = tested on: BT-549 breast
NCI-H23 lung = tested on: NCI-H23 lung
NCI-H226 lung = tested on: NCI-H226 lung
SN12C renal = tested on: SN12C renal
SF-539 CNS = tested on: SF-539 CNS
A498 renal = tested on: A498 renal
U251 CNS = tested on: U251 CNS
OVCAR-5 ovarian = tested on: OVCAR-5 ovarian
HS 578T breast = tested on: HS 578T breast
SNB-75 CNS = tested on: SNB-75 CNS
RXF 393 renal = tested on: RXF 393 renal

CC(C)(C)OC(=O)NC(Cc1ccccc1)C(=O)N1CCCC1C(N)=O (stereo not drawn) (Boc-Phe-Pro-NH2; configuration not given here)
TGI (EKVX NSCLC): > 100 µM | TGI (LOX IMVI melanoma): > 100 µM | TGI (T-47D breast): > 100 µM | TGI (MDA-MB-231 breast): > 100 µM | TGI (UACC-62 melanoma): > 100 µM | TGI (ACHN renal): > 100 µM | TGI (SK-MEL-5 melanoma): > 100 µM | TGI (HCT-116 colon): > 100 µM | TGI (MALME-3M melanoma): > 100 µM | TGI (MCF7 breast): > 100 µM | TGI (DU-145 prostate): > 100 µM | TGI (HT29 colon): > 100 µM | TGI (CCRF-CEM leukemia): > 100 µM | TGI (SF-295 CNS): > 100 µM | TGI (A549 NSCLC): > 100 µM | TGI (HOP-62 NSCLC): > 100 µM | TGI (SW-620 colon): > 100 µM | TGI (MDA-MB-435): > 100 µM | TGI (UACC-257 melanoma): > 100 µM | TGI (NCI-H460 lung): > 100 µM | TGI (M14 melanoma): > 100 µM | TGI (HL-60(TB) leukemia): > 100 µM | TGI (MOLT-4 leukemia): > 100 µM | TGI (RPMI-8226 leukemia): > 100 µM | TGI (SK-OV-3 ovarian): > 100 µM | TGI (IGROV1 ovarian): > 100 µM | TGI (OVCAR-3 ovarian): > 100 µM | TGI (K-562 leukemia): > 100 µM | TGI (OVCAR-8 ovarian): > 100 µM | TGI (MDA-N): > 100 µM | TGI (SNB-19 CNS): > 100 µM | TGI (HCT-15 colon): > 100 µM | TGI (COLO 205 colon): > 100 µM | TGI (HCC-2998 colon): > 100 µM | TGI (SR leukemia): > 100 µM | TGI (SF-268 CNS): > 100 µM | TGI (OVCAR-4 ovarian): > 100 µM | TGI (TK-10 renal): > 100 µM | TGI (CAKI-1 renal): > 100 µM | TGI (HOP-92 NSCLC): 74 µM | TGI (SK-MEL-28 melanoma): > 100 µM | TGI (PC-3 prostate): > 100 µM | TGI (NCI-H522 lung): > 100 µM

O=S(=O)(Nc1ccc(Cl)c(F)c1)c1ccc(-c2cnc(C3CC3)o2)cc1
GI50 (EKVX NSCLC): 1.05 µM | TGI (EKVX NSCLC): 14.8 µM | GI50 (NCI/ADR-RES ovarian): 0.369 µM | TGI (NCI/ADR-RES ovarian): 7.56 µM | GI50 (LOX IMVI melanoma): 0.503 µM | TGI (LOX IMVI melanoma): 19.1 µM | GI50 (T-47D breast): 0.436 µM | TGI (T-47D breast): 15.6 µM | GI50 (MDA-MB-231 breast): 1.06 µM | TGI (MDA-MB-231 breast): 11.5 µM | GI50 (UACC-62 melanoma): 0.281 µM | TGI (UACC-62 melanoma): 8 µM | GI50 (ACHN renal): 0.622 µM | TGI (ACHN renal): 15.8 µM | GI50 (786-0 renal): 0.535 µM | TGI (786-0 renal): 16.2 µM | GI50 (UO-31 renal): 0.855 µM | TGI (UO-31 renal): 11.9 µM | GI50 (SK-MEL-5 melanoma): 0.511 µM | TGI (SK-MEL-5 melanoma): 11.1 µM | GI50 (SK-MEL-2 melanoma): 0.603 µM | TGI (SK-MEL-2 melanoma): 18.9 µM | GI50 (HCT-116 colon): 0.382 µM | TGI (HCT-116 colon): 12.7 µM | GI50 (KM12 colon): 0.379 µM | TGI (KM12 colon): 13.3 µM | GI50 (MALME-3M melanoma): 0.821 µM | TGI (MALME-3M melanoma): 23.4 µM | GI50 (MCF7 breast): 0.284 µM | TGI (MCF7 breast): 13.4 µM | GI50 (BT-549 breast): 0.515 µM | TGI (BT-549 breast): 15.4 µM | GI50 (NCI-H23 lung): 1.19 µM | TGI (NCI-H23 lung): 13.5 µM | GI50 (DU-145 prostate): 1.65 µM | TGI (DU-145 prostate): 14.7 µM | GI50 (HT29 colon): 0.339 µM | TGI (HT29 colon): 5.27 µM | GI50 (NCI-H226 lung): 1.25 µM | TGI (NCI-H226 lung): 16.5 µM | GI50 (CCRF-CEM leukemia): 0.382 µM | TGI (CCRF-CEM leukemia): 21.5 µM | GI50 (SF-295 CNS): 0.324 µM | TGI (SF-295 CNS): 2.99 µM | GI50 (A549 NSCLC): 0.825 µM | TGI (A549 NSCLC): 14.7 µM | GI50 (HOP-62 NSCLC): 0.579 µM | TGI (HOP-62 NSCLC): 17.6 µM | GI50 (SW-620 colon): 0.374 µM | TGI (SW-620 colon): 15 µM | GI50 (SN12C renal): 0.808 µM | TGI (SN12C renal): 14.4 µM | GI50 (MDA-MB-435): 0.0853 µM | TGI (MDA-MB-435): 0.484 µM | GI50 (UACC-257 melanoma): 1.35 µM | TGI (UACC-257 melanoma): 18.2 µM | GI50 (SF-539 CNS): 0.354 µM | TGI (SF-539 CNS): 2.78 µM | GI50 (NCI-H460 lung): 0.413 µM | TGI (NCI-H460 lung): 11.6 µM | GI50 (M14 melanoma): 0.328 µM | TGI (M14 melanoma): 12.9 µM | GI50 (A498 renal): 0.232 µM | TGI (A498 renal): 0.922 µM | GI50 (HL-60(TB) leukemia): 0.313 µM | TGI (HL-60(TB) leukemia): 3.8 µM | GI50 (MOLT-4 leukemia): 0.614 µM | TGI (MOLT-4 leukemia): 25 µM | GI50 (RPMI-8226 leukemia): 0.531 µM | TGI (RPMI-8226 leukemia): > 53.4 µM | GI50 (SK-OV-3 ovarian): 0.887 µM | TGI (SK-OV-3 ovarian): 18.3 µM | GI50 (IGROV1 ovarian): 0.556 µM | TGI (IGROV1 ovarian): 15.2 µM | GI50 (OVCAR-3 ovarian): 0.357 µM | TGI (OVCAR-3 ovarian): 3.48 µM | GI50 (K-562 leukemia): 0.21 µM | TGI (K-562 leukemia): > 65.3 µM | GI50 (OVCAR-8 ovarian): 1.09 µM | TGI (OVCAR-8 ovarian): 19.8 µM | GI50 (U251 CNS): 0.448 µM | TGI (U251 CNS): 14.4 µM | GI50 (SNB-19 CNS): 0.477 µM | TGI (SNB-19 CNS): 14.8 µM | GI50 (HCT-15 colon): 0.332 µM | TGI (HCT-15 colon): 12.6 µM | GI50 (COLO 205 colon): 0.651 µM | TGI (COLO 205 colon): 9.7 µM | GI50 (HCC-2998 colon): 1.72 µM | TGI (HCC-2998 colon): 12.3 µM | GI50 (SR leukemia): 0.253 µM | TGI (SR leukemia): > 43 µM | GI50 (OVCAR-5 ovarian): 1.61 µM | TGI (OVCAR-5 ovarian): 14.5 µM | GI50 (HS 578T breast): 0.355 µM | TGI (HS 578T breast): 8.56 µM | GI50 (SF-268 CNS): 1.03 µM | TGI (SF-268 CNS): 20.1 µM | GI50 (OVCAR-4 ovarian): 1.82 µM | TGI (OVCAR-4 ovarian): 16.2 µM | GI50 (SNB-75 CNS): 0.172 µM | TGI (SNB-75 CNS): 0.692 µM | GI50 (TK-10 renal): 1.55 µM | TGI (TK-10 renal): 12.7 µM | GI50 (CAKI-1 renal): 0.36 µM | TGI (CAKI-1 renal): 15.2 µM | GI50 (RXF 393 renal): 0.282 µM | TGI (RXF 393 renal): 2.75 µM | GI50 (HOP-92 NSCLC): 0.734 µM | TGI (HOP-92 NSCLC): 6.61 µM | GI50 (SK-MEL-28 melanoma): 1.58 µM | TGI (SK-MEL-28 melanoma): 17.4 µM | GI50 (PC-3 prostate): 0.516 µM | TGI (PC-3 prostate): 13.9 µM | GI50 (NCI-H522 lung): 0.192 µM | TGI (NCI-H522 lung): 4.42 µM

Reference: PubChem BioAssay (NCI)
